Reference: patent publication US6420424B1, “CCR-3 receptor antagonists” (SmithKline Beecham Corporation, priority 1998, dated 2002)

Compound `CCOC(=O)[C@H](Cc1ccc(N)cc1)NC(=O)c1ccccc1` [Example 6, (S)-Ethyl-2-benzoylamino-3-(4-aminophenyl)propionate] has a melting point of 120 to 122 °C.
